Data on 3 molecules can be found in patent publication US10906913B2, “NMDA receptor modulators and uses thereof” (Northwestern University, priority 2008, dated 2021).

“Also recorded” adds a separate entry of the source. Read-outs that look alike come from different tables or passages of the source. Peptide text beside a SMILES is read from it.

Assay [1] addresses T1, NMDA receptor (Rattus norvegicus, UniProt P35439).
T1 construct: NMDA receptor-gated single neuron conductance (INMDA) in hippocampal CAI pyramidal neurons; from tissue; host or cells: in vitro hippocampal slices, CA1 pyramidal neurons
The experiment in a line: NMDA receptor-gated single neuron conductance (INMDA) in hippocampal CA1 pyramidal neurons. In kind it is cell-based. Particulars: for enhancement of INMDA compared among the tested compounds: comparison of compound B, AK-51, AK-52. From the text:
(§1) The effects of the three compounds were examined on 1) NMDA receptor-gated single neuron conductance (INMDA) in hippocampal CAI pyramidal neurons and 2) the magnitude of long-term potentiation (LTP) and long term depression (LTD) at Schaffer collateral CA1 synapses, in in vitro hippocampal slices.

The subject of assay [2] is Schaffer collateral-CA1 synapses. The experiment in a line: Long-term potentiation (LTP) at Schaffer collateral-CA1 synapses, in vitro hippocampal slices. Particulars: for magnitude of LTP: high frequency stimulus; for magnitude / induction of LTP: concentration not given. In kind it is cell-based.
Text: as §1

The test system is the same in assay [3]. Nature of the assay: Long term depression (LTD) at Schaffer collateral-CA1 synapses, in vitro hippocampal slices. As to conditions: 1 μM; low frequency stimulus 2 Hz/10 min. Type of assay: cell-based.
Text: as §1

The subject of a further assay is rats. Nature of the assay: Alternating T-maze learning task. In kind it is in vivo, rat. As to conditions: 60 min before testing. As to the method:
Male 3 month old Fisher 344 X Brown Norway F1 cross rats (FBNF1) were used for this study. The t-maze was constructed with arms (45 cm long×10 cm wide×10 cm high) made of black Plexiglas enclosing the maze. Two plastic bottle caps, lined with wire mesh, were secured to the end of each goal arm in which the food reward (Cheerios, 100 mg/piece) was placed. Before the start of training, animals were gradually deprived of food to approximately 85% of their free feeding weight. On three successive days before the start of training, animals were habituated to the t-maze with food located throughout the maze. […] On the subsequent testing day, animals were given injections of AK51 (0.3, 1, 3, 10, 30 mg/kg p.o.), or DMSO vehicle (1 mg/ml; Sigma, Saint Louis Mo.) in a blind manner via gastric gavage (4″, 16-ga; Braintree Scientific, Braintree Mass.) 60 min prior to the start of testing (n=8-9 per group. On the first trial of testing, both arms were baited with food and for the subsequent 20 trials only alternating choices (opposite of the animal's previous choice) were rewarded (˜30 sec inter-trial interval). The number of trials to criterion (5 consecutive correct choices) was calculated for each animal. Data was analyzed by ANOVA followed by Fisher PLSD post hoc tests comparing individual drug doses to vehicle (α=0.05). […]

In the next assay the test system is Glutamate, AMPA. The experiment in a line: Binding assay, Glutamate, AMPA. The arrangement: species or system rat. As to conditions: 10 μM. The source says: (§2) Table B depicts the results of binding assays against various targets with AK51: […]
A further assay concerns Glutamate, Kainate. The experiment in a line: Binding assay, Glutamate, Kainate. More on the design: species or system rat. Particulars: 10 μM.
Text: as §2

For assay [4], the target named is Glutamate, Metabotropic, mGlus (Homo sapiens, UniProt P41594). The experiment in a line: Binding assay, Glutamate, Metabotropic, mGlus.
Sequence of Glutamate, Metabotropic, mGlus (P41594 21-1212): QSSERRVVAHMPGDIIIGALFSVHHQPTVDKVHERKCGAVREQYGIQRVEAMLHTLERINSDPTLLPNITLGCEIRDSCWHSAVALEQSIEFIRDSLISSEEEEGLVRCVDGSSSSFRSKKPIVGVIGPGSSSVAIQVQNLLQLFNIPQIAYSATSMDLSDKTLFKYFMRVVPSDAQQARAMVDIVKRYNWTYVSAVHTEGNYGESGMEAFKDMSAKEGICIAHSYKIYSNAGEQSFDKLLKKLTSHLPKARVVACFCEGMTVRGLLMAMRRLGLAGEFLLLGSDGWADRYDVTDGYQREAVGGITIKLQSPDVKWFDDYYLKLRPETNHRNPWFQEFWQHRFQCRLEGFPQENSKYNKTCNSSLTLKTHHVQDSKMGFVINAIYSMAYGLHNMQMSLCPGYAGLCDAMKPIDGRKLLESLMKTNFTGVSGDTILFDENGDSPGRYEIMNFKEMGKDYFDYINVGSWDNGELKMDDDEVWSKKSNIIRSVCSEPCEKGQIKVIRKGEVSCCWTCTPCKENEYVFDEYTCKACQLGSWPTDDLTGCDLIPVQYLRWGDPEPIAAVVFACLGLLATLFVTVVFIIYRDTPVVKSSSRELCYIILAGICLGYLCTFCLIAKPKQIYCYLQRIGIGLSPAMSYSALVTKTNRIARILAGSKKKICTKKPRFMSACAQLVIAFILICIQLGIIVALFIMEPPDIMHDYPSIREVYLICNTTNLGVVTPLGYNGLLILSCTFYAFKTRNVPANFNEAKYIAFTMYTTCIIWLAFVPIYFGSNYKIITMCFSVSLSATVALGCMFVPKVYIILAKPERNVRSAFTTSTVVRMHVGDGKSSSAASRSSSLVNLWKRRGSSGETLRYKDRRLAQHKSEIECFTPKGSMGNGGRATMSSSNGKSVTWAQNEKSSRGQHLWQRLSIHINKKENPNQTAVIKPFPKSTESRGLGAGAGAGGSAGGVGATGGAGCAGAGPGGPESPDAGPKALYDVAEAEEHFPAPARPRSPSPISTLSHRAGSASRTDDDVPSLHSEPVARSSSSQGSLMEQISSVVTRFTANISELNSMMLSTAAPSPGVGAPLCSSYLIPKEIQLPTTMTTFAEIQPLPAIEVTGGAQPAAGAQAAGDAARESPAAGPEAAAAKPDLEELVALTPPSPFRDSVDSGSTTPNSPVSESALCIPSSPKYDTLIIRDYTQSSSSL
Text: as §2

The subject of another assay is Glutamate, NMDA, Agonism. Nature of the assay: Binding assay, Glutamate, NMDA, Agonism. Particulars: 10 μM. The arrangement: species or system rat.
Text: as §2

In a further assay the target is Glutamate, NMDA, Glycine (Rattus norvegicus, UniProt P35439). Nature of the assay: Binding assay, Glutamate, NMDA, Glycine.
Text: as §2

In assay [5] the target is Glutamate, NMDA, Phencyclidine (Rattus norvegicus, UniProt P35439). The experiment in a line: Binding assay, Glutamate, NMDA, Phencyclidine.
Text: as §2

The target in assay [6] is Glutamate, NMDA, Polyamine (Rattus norvegicus, UniProt P35439+Q00960). Nature of the assay: Binding assay, Glutamate, NMDA, Polyamine.
Sequence of Glutamate, NMDA, Polyamine (Q00960 27-1482, other chains not shown): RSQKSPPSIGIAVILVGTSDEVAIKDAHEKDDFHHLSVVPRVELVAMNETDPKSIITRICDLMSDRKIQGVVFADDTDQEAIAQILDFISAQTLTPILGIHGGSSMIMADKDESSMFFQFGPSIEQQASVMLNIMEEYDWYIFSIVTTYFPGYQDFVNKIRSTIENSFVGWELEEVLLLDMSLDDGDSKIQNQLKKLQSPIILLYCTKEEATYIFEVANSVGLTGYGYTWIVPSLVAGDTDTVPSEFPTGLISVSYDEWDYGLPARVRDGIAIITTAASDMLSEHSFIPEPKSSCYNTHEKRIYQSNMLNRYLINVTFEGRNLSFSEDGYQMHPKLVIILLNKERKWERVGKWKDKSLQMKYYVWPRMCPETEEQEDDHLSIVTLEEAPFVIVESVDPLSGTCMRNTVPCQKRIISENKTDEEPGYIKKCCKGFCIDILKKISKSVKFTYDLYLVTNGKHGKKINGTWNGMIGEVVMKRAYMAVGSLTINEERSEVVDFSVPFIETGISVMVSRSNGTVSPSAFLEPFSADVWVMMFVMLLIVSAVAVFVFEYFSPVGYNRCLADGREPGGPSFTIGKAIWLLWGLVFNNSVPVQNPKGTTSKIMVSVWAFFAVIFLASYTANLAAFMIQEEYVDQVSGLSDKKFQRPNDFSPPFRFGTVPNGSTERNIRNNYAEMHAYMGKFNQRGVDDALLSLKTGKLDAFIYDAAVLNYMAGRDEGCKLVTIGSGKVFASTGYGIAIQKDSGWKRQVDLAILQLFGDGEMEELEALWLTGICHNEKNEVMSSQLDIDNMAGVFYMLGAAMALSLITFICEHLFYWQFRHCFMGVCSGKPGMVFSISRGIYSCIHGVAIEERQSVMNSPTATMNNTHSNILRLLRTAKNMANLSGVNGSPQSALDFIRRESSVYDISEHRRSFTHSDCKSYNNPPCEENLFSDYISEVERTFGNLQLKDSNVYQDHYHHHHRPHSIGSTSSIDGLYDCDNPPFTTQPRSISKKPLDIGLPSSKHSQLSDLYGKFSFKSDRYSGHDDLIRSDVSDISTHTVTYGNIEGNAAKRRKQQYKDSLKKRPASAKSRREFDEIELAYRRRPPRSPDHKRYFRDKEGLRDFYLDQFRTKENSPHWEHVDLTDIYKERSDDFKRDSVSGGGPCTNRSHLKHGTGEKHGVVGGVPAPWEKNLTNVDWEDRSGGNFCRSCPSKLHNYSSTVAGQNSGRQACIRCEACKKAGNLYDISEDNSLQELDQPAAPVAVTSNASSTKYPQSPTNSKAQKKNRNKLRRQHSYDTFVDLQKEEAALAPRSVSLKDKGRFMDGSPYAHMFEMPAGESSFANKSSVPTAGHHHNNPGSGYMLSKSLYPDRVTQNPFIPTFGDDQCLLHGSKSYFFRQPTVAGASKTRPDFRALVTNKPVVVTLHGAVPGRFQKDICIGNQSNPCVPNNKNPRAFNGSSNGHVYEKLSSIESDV
Text: as §2

The subject of another assay is Glutamate, Non-Selective. Nature of the assay: Binding assay, Glutamate, Non-Selective. More on the design: species or system rat. Particulars: 10 μM.
Text: as §2

Assay [7] deals with Glycine, Strychnine-Sensitive. The experiment in a line: Binding assay, Glycine, Strychnine-Sensitive. Particulars: 10 μM. More on the design: species or system rat.
Text: as §2

For assay [8], the target named is T1, NMDA receptor. Particulars: cited from earlier work.
For assay [9], the system named is Schaffer collateral-CA1 synapses. Particulars: cited from earlier work.
For assay [10] the test system is unchanged. As to conditions: cited from earlier work. The source holds these as a separate data set.

In the case of `O=C1NCC12CCCN2` (stereo not drawn) [AK-51], the “NMDA current (normalized pharmacologically-isolated NMDA receptor-gated current)” value at NMDA receptor [1] (100 nM and 1 μM, 20 min bath application, whole-cell recording) is “enhances”. The “single shock evoked INMDA” value on NMDA receptor [1] (100 nM, listed as NRX-10,051) is given as “enhanced; also recorded: marked enhancement”; on NMDA receptor [1] (1 μM) it was “enhancement”; on NMDA receptor [1] (1 μM, listed as NRX-10,051), “enhanced”. In addition, the “enhancement of INMDA compared among the tested compounds” value on NMDA receptor [1] is “less potency than compound B; also recorded: smaller in magnitude”. Further, the “magnitude of LTP” value in [2] (100 nM) is given as “Enhancement”; in [2] (1 μM, listed as AK5151), “Enhancement”; in assay [2] (1 μM, listed as NRX-10,051), “doubled the magnitude”. The “magnitude / induction of LTP” value in assay [2] was “enhances”. The LTD result in [3] was “not altering”. Also, the “learning behavior in the T-maze test” value in the assay on rats (1.0 mg/kg by mouth, P<0.001) is given as “statistically significant enhancement”; in the assay on rats (3.0 mg/kg by mouth, P<0.01), “statistically significant enhancement”. The “% Inhibition” value with Glutamate, AMPA is recorded as −8%; with Glutamate, Kainate, −13%; in the assay on Glutamate, NMDA, Agonism, 27%; in the assay with Glutamate, Non-Selective, −10%; in assay [7] it was 4%. Further, the inhibition at 10 µM in assay [4] was -7%; at Glutamate, NMDA, Glycine, -6%; in [5], -5%; in assay [6], -14%.
On to `CC(O)C(NC(=O)OCc1ccccc1)C(=O)N1CC2(CCCN2C(=O)OCc2ccccc2)C1=O` (stereo not drawn) [AK-52], for which the “single shock evoked INMDA” value is given as “mild enhancement” on NMDA receptor [1] (100 nM); “enhancement” at NMDA receptor [1] (100 nM, listed as AK52); “significant reduction” on NMDA receptor [1] (1 μM); “marked reduction” at NMDA receptor [1] (1 μM, listed as AK52). Further, the “enhancement of INMDA compared among the tested compounds” value on NMDA receptor [1] is on record as “weakest enhancer”. In addition, the “magnitude of LTP” value is on record as “enhancement” in [2] (100 nM) and “slight, but significant, reduction” in [2] (1 μM). The “magnitude / induction of LTP” value in [2] is “selectively enhances”. Moreover, in assay [3], the LTD entry is given as “without altering; also recorded: did not affect”.
On to `C[C@@H](O)[C@H](N)C(=O)N1CCC[C@H]1C(=O)N1CCC[C@H]1C(=O)N[C@H](C(N)=O)[C@@H](C)O` [GLYX-13] (H-TPPT-NH2), for which the “burst INMDA” value on NMDA receptor [8] (100 μM) is on record as “reducing”. For the same molecule, the “burst-activated INMDA” value on NMDA receptor [8] (1-10 μM) is on record as “enhancement”. The “single pulse evoked INMDA” value on NMDA receptor [8] (1-10 μM) is “reducing”. For the same molecule, the “INMDA mediated by NMDA receptors containing NR2A/B subunits” value on NMDA receptor [8] is “selectively enhance”. For the same molecule, the results for the LTP entry in assay [9] (100 μM) and in assay [9] (1-10 μM) were “reducing” and “enhancement”, respectively. For the same molecule, the “simultaneous effect on LTP and LTD” value in assay [9] is “simultaneously increase LTP and reduce LTD”. Moreover, the LTD entry in [10] (100 μM) was “no longer affected”; in assay [10] (1-10 μM) it was “reducing”.

Broadly, the % Inhibition is the drop in the measured response relative to a control, in per cent. Broadly, the inhibition is the relative decrease from the control value, in per cent.
